US9446027B2, “Use of pidotimod to treat irritable bowel syndrome” (POLICHEM SA, priority 2013, dated 2016)
Square brackets hold non-standard residues; d marks the D form. Peptide text beside a SMILES is read from it. pGlu = O=C1CC[C@@H](C(=O)O)N1; Thz = O=C(O)[C@@H]1CSCN1

System: irritable bowel syndrome
Experiment: Open label pilot trial in patients with IBS: overall and extracolonic IBS scores
Format: in vivo, human
Settings: nine IBS patients, oral solution of Example 4 twice a day, after 12 weeks
From the text: Nine patients with IBS aged 25 to 60 years (5 female) were enrolled in an open label pilot trial to receive twice a day the composition as per the Example 4. IBS was diagnosed according to Rome II criteria for the diagnosis of IBS (Rasquin-Weber A: Childhood functional gastrointestinal disorders, Gut 1999;45 (Suppl II): II60-II68). Rome II Criteria for the Diagnosis of IBS: at least 12 weeks, which need not be consecutive, in the preceding 12 months of abdominal discomfort or pain that has at least two of the following three features: • 1. Relieved by defecation. • 2. Onset associated with changes in stool frequency. • 3. Onset associated with changes in stool form.
The overall IBS scores (IBS Symptoms, Pain severity, Pain frequency, Bloating, Bowel habit dissatisfaction, Life interference) and extracolonic IBS scores were assessed at 4, 8, and 12 weeks during treatment.

O=C1CC[C@@H](C(=O)N2CSC[C@H]2C(=O)O)N1 [Pidotimod, (4R)-3-(5-oxo-L-prolyl)-1,3-thiazolidine-4-carboxylic acid] ([pGlu]-[Thz]-OH)
post-treatment overall extracolonic IBS score (baseline 240, P<0.001): 90 | overall IBS score (IBS Symptoms, Pain severity, Pain frequency, Bloating, Bowel habit dissatisfaction, Life interference) (baseline 315, P<0.05): 175
